The text below walks through data of US7585859B2, “PDE4B inhibitors and uses therefor” (Plexxikon, Inc., priority 2004, dated 2009).

Assay [1] concerns the target T1, PDE4B: The catalytic domain of human PDE4B from S152-S528 (Homo sapiens, UniProt Q07343).
T1 construct: His6 (N); thrombin cleavage site (N); made in house; host or cells: E. coli
As to the kind of experiment: PDE4 IC50 determination by Scintillation Proximity Assay, PDE4B. The format is biochemical. Summed up: (§1)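 Radiometric SPA: PDE4B (80 ng/ml) or PDE4D (4 ng/ml) hydrolysed [^3H]cAMP over 30 min at 30°, and the bead-bound [^3H]AMP was scintillation-counted.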

The next assay deals with T2, PDE4D (Homo sapiens, UniProt Q08499).
T2 construct: PDE4D: The catalytic domain of human PDE4B from S3 16-V692; His6 (N); thrombin cleavage site (N); made in house; host or cells: E. coli
T2 sequence (Q08499 380-756): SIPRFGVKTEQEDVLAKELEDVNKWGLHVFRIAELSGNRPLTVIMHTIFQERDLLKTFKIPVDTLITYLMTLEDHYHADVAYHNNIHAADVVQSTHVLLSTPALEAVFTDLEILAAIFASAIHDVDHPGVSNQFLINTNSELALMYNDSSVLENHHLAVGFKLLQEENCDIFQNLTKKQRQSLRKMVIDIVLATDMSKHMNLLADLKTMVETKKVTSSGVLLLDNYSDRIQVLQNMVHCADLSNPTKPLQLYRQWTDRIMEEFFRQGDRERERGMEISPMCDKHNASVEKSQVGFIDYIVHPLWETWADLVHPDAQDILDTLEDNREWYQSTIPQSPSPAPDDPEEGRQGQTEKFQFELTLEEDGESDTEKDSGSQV
Briefly: PDE4 IC50 determination by Scintillation Proximity Assay, PDE4D. The format is biochemical. Summed up: as §1
For orientation: SPA uses beads or plates that emit light when radiolabelled molecules are held near them.

Assay [2] has as its target T3, full-length human PDE4D5 isozyme (Homo sapiens, UniProt Q08499).
T3 construct: The full-length human PDE4D5 isozyme; His6 (N); TEV cleavage site (N); made in house; host or cells: baculovirus infected insect cells (unpurified lysate)
Briefly: PDE4 IC50 determination by Scintillation Proximity Assay, PDE4D5. The format is biochemical. Summed up: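 Unpurified His6-tagged full-length human PDE4D5 from baculovirus-infected insect cell lysate, 0.083 μl glycerol stock/ml, hydrolysed [3H]cAMP in Tris pH 7.5/MgCl/EGTA buffer, 30 min at 30°. ZnSO4/SPA beads stop; [3H]AMP counted. Controls: DMSO and roflumilast; 11-point duplicate curves, nonlinear-regression IC50.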

Assay [3] has as its system TNFα levels in serum of LPS-challenged rats. Briefly: Rat inhibition studies: serum TNFα after iv LPS challenge. The format is in vivo. To be noted: read-out: % inhibition r TNFα; for inhibition in vivo at 100 mg/kg: 100 mg/kg po. The method, then: All studies were done with male rats CD (SD) IGS BR (Crl) (Charles River, France), which were grouped in to 5 animal groups.
At the end of the acclimatization period, the non-fasted rats were weighed, individually identified on the tail with a permanent marker and administered by oral (po) or interperitoneal (ip) route with either vehicle, reference or test compound in a volume of 10 mL/kg adapted to the body weight. The animals were gathered in groups of 5 animals in a polystyrene labeled cage with sawdust covered floors. 2-hours after vehicle, reference or test substance administration, rats received an intravenous (iv) injection of 0.1 mg/kg LPS in a volume of 1 mL/kg of body weight. 2 h after LPS challenge (or as indicated in Tables 3B and 4B), blood samples were collected into tubes without anticoagulant by retro-orbital puncture under gas (isoflurane) anesthesia. Samples were allowed to clot at room temperature for 5 to 10 min then put on ice until there were prepared by centrifugation (6000×g for 3 min at 4° C.) and stored at −20° C. until use. TNFα levels were measured in serum samples in duplicate by ELISA technique according to the manufacturer's procedure (Rat TNFα kit Quantikine M (RTA00, R&D System, France)). Data are reported as percent decrease in observed TNFα levels versus TNFa levels observed for vehicle dosed animal groups.

Where [4] appears, read: Table 1B, Formula I compounds, read-out: IC50 PDE4B.
The mark [5] stands for this setting: Table 1B, Formula I compounds, read-out: IC50 PDE4D.
Where [6] appears, read: Table 1B, Formula I compounds, read-out: IC50 PDE4D5.
Setting [7] is: po, 2 h, rat in vivo inhibition assay, 2 hr challenge delay.
The mark [8] stands for this setting: 2 h, rat, po, 2 hr challenge delay.
[9] abbreviates: po, 2 h, rat in vivo, 2 hr challenge delay, percent decrease in TNFα versus vehicle.
Setting [10] is: second part of Table 2B (2-23 to 2-103), column 3, column is PDE4B in first part, read-out: IC 50 vs. indicated assay h TNFα.
Setting [11] is: second part of Table 2B (2-23 to 2-103), column 5, column is PDE4D in first part, read-out: IC 50 vs. indicated assay h TNFα.

Read-outs that look alike come from different tables or passages of the source.

T3 sequence (Q08499 1-745 isoform Q08499-6): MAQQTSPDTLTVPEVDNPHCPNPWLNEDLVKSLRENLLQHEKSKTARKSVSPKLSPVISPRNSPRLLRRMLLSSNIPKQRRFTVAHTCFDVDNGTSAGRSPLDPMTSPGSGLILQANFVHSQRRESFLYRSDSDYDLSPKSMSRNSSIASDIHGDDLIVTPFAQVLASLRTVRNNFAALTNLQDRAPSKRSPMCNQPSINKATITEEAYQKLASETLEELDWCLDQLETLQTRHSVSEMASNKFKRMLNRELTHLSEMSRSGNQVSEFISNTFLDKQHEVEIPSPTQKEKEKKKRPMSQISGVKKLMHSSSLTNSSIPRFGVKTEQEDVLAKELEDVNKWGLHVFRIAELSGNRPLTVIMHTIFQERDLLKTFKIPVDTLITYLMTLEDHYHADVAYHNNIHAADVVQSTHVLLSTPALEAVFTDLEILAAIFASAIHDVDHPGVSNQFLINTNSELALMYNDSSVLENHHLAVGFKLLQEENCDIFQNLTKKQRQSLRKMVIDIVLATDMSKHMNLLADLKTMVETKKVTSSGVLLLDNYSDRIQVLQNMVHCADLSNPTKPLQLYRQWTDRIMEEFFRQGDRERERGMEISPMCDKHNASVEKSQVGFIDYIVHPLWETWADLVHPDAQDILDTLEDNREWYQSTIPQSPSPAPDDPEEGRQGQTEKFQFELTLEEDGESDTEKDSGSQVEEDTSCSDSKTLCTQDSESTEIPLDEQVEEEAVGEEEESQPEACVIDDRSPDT
T1 sequence (Q07343 with tags, fused parts or gaps): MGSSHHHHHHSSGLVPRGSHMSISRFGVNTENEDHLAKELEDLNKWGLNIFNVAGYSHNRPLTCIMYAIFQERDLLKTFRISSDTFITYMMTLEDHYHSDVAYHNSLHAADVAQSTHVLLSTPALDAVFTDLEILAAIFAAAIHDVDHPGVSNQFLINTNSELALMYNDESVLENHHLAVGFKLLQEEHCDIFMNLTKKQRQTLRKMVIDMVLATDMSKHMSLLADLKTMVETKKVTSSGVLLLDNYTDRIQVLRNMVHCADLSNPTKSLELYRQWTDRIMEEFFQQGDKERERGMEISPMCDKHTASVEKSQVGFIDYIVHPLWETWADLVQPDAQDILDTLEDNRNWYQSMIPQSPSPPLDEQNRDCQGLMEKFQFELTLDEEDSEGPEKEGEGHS

Consider `N#Cc1c(Nc2ccccc2)sc(C(=O)C2CC2)c1N` [Compound 1-28, 4-Amino-5-cyclopropanecarbonyl-2-phenylamino-thiophene-3-carbonitrile], for which the IC50 (in assay [1] (setting [4]); at PDE4D (setting [5]); in assay [2] (setting [6])) was less than 10 µM in each case. In assay [3] (setting [7]), the inhibition in vivo at 100 mg/kg is less than 20%.

For the molecule `COc1ccc(C(=O)c2sc(Nc3ccccc3)c(C#N)c2N)cc1` [Compound 1-31], the IC50 (in assay [1] (setting [4]); on PDE4D (setting [5]); in assay [2] (setting [6])) was less than 10 µM in each case. Besides, the inhibition in vivo at 200 mg in assay [3] (1 h, rat, 200 mg, po, 1 hr challenge delay) is less than 20%. Further, the inhibition in vivo at 100 mg/kg in assay [3] (setting [7]) was more than 20%.

`CCOC(=O)c1c(NC2CCCC2)sc(C(=O)c2ccc(OC)cc2)c1N` [Compound 1-191, 4-Amino-2-cyclopentylamino-5-(4-methoxy-benzoyl)-thiophene-3-carboxylic acid ethyl ester]: the IC50 (in assay [1] (setting [4]); at PDE4D (setting [5]); in assay [2] (setting [6])) was less than 10 µM in each case. In addition, the inhibition in vivo at 50 mg in assay [3] (setting [8]) was less than 20%.

Regarding `N#Cc1c(Nc2ccccc2)sc(C(=O)c2cc(-c3ccccc3)no2)c1N` [Compound 1-192, 4-Amino-2-phenylamino-5-(3-phenyl-isoxazole-5-carbonyl)-thiophene-3-carbonitrile], the IC50 (in assay [1] (setting [4]); at PDE4D (setting [5]); in assay [2] (setting [6])) was less than 10 µM throughout. Besides, in assay [3] (setting [8]), the inhibition in vivo at 50 mg was less than 20%.

For the molecule `CC(C)Nc1sc(C(=O)c2cc(-c3ccccc3)no2)c(N)c1C#N` [Compound 1-205, 4-Amino-2-isopropylamino-5-(3-phenyl-isoxazole-5-carbonyl)-thiophene-3-carbonitrile], the IC50 (in assay [1] (setting [4]); at PDE4D (setting [5])) was less than 10 µM throughout. Also, the inhibition in vivo at 100 mg/kg in assay [3] (setting [7]) was less than 20%.

Regarding `CC(C)Nc1sc(C(=O)c2cc(-c3ccc(Cl)cc3)no2)c(N)c1C#N` [Compound 1-212, 4-Amino-5-[3-(4-chloro-phenyl)-isoxazole-5-carbonyl]-2-isopropylamino-thiophene-3-carbonitrile], the IC50 in assay [1] (setting [4]) is less than 10 µM; at PDE4D (setting [5]), more than 10 µM; in assay [2] (setting [6]) it was more than 10 µM. Besides, the inhibition in vivo at 90 mg in assay [3] (2 h, rat, 90 mg, po, 2 hr challenge delay) was more than 20%.

As to `CC(C)CNc1sc(C(=O)c2cc(-c3ccccc3)no2)c(N)c1C(N)=O` [Compound 1-236, 4-Amino-2-isobutylamino-5-(3-phenyl-isoxazole-5-carbonyl)-thiophene-3-carboxylic acid amide], the IC50 (in assay [1] (setting [4]); on PDE4D (setting [5]); in assay [2] (setting [6])) was less than 10 µM in each case. Moreover, the inhibition in vivo at 50 mg in assay [3] (2 h, rat, ip, 2 hr challenge delay) is more than 20%; in assay [3] (setting [8]), more than 20%.

As for `NC(=O)c1c(NC2CCCC2)sc(C(=O)c2cc(-c3ccccc3)no2)c1N` [Compound 1-251, 4-Amino-2-cyclopentylamino-5-(3-phenyl-isoxazole-5-carbonyl)-thiophene-3-carboxylic acid amide], the IC50 (in assay [1] (setting [4]); at PDE4D (setting [5]); in assay [2] (setting [6])) was less than 10 µM each time. Moreover, in assay [3] (setting [8]), the inhibition in vivo at 50 mg is more than 20%.

For the molecule `Nc1nc(Nc2ccccc2F)sc1C(=O)c1cc(-c2ccccc2)no1` [Compound 2-6, [4-Amino-2-(2-fluoro-phenylamino)-thiazol-5-yl]-(3-phenyl-isoxazol-5-yl)-methanone], the IC50 is less than 10 µM in assay [1] (first part of Table 2B (2-1 to 2-22), read-out: IC 50 vs. indicated assay PDE4B); less than 10 µM at PDE4D (first part of Table 2B (2-1 to 2-22), read-out: IC 50 vs. indicated assay PDE4D); less than 10 µM in assay [2] (first part of Table 2B (2-1 to 2-22), read-out: IC 50 vs. indicated assay PDE4D5). Further, the inhibition in vivo at 100 mg/kg in assay [3] (setting [9]) is more than 20%.

On to `Nc1nc(Nc2ccc(Cl)cc2)sc1C(=O)c1cccc(C(F)(F)F)c1` [Compound 2-23, [4-Amino-2-(4-chloro-phenylamino)-thiazol-5-yl]-(3-trifluoromethyl-phenyl)-methanone], for which the IC50 (in assay [1] (setting [10]); on PDE4D (setting [11])) was less than 10 µM each time. In addition, the inhibition in vivo at 100 mg/kg in assay [3] (setting [9]) is less than 20%.

For `Nc1nc(NC2CCCC2)sc1C(=O)c1cccc(Cl)c1` [Compound 2-80, (4-Amino-2-cyclopentylamino-thiazol-5-yl)-(3-chloro-phenyl)-methanone], the IC50 (in assay [1] (setting [10]); on PDE4D (setting [11])) was less than 10 µM each time. The inhibition in vivo at 100 mg/kg in assay [3] (setting [9]) is more than 20%.
